Measured values taken from ChEMBL document CHEMBL1136262, “4-Alkoxy-2,6-diaminopyrimidine derivatives: inhibitors of cyclin dependent kinases 1 and 2” (Bioorg Med Chem Lett, 2003).

Experiments:
[1] = target: T1, Cyclin-dependent kinase 2/cyclin A (Homo sapiens) (UniProt P24941+P20248+P78396); test: Inhibition of human Cyclin-dependent kinase 2 cyclin A3 at 10 uM; type: protein-complex assay
[2] = target: T2, Cyclin-dependent kinase 1/cyclin B1 (Homo sapiens, UniProt P06493+P14635); test: Inhibition of Cyclin dependent kinase 1-cyclin B1 from starfish oocytes at 10 uM; settings: Asteroidea, Oocyte
[3] = target: T1, Cyclin-dependent kinase 2/cyclin A (Homo sapiens); test: Inhibition of human Cyclin-dependent kinase 2 cyclin A3 at 100 uM; type: protein-complex assay
[4] = target: T2, Cyclin-dependent kinase 1/cyclin B1; test: Inhibition of Cyclin dependent kinase 1-cyclin B1 from starfish oocytes at 100 uM; settings: Asteroidea, Oocyte
[5] = target: Cyclin-dependent kinase 2/cyclin A (Homo sapiens, UniProt P24941); test: Inhibition of human Cyclin-dependent kinase 2 cyclin A3 at 12.5 uM ATP; type: protein-complex assay

T2 sequence (P06493 whole entry, looked up): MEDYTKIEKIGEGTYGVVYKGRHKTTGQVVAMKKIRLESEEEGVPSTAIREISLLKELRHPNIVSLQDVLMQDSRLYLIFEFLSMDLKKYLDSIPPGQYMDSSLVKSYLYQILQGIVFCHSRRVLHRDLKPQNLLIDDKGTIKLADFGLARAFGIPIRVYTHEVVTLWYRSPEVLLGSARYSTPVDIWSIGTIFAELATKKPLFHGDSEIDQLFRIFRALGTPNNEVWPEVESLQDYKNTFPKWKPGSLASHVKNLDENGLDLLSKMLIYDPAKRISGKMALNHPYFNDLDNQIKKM
T2 sequence (P14635 whole entry, looked up): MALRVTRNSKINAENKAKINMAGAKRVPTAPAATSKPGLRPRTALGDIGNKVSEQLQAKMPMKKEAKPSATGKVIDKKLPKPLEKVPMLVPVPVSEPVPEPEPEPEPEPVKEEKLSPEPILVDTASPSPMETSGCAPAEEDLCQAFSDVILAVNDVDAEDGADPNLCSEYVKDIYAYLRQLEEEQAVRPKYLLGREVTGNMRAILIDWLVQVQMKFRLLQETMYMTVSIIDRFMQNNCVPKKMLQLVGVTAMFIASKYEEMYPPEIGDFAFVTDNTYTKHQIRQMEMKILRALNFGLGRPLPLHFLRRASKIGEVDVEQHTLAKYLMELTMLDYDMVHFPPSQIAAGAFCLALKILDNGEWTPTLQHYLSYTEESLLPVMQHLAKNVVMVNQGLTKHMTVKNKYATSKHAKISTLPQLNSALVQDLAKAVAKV

| inhibition [1] | inhibition [2] | inhibition [3] | inhibition [4] | IC50 [5] | Structure (SMILES) |
| --- | --- | --- | --- | --- | --- |
|  |  | 37% | 25% |  | Nc1nc(N)c(/C=N/O)c(OCC2CCCCC2)n1 |
| 43% | 35% |  |  |  | Nc1nc(N)c(C=O)c(OCC2CCCCC2)n1 |
|  |  | 44% | 61% |  | NC(=O)N/N=C/c1c(N)nc(N)nc1OCC1CCCCC1 |
|  |  |  |  | 27 µM | Nc1nc(N)c(N=O)c(OCc2ccccc2)n1 |
| 36% | 35% |  |  |  | CCCCCOc1nc(N)nc(N)c1N=O |
|  |  |  |  | 5 µM | Nc1nc(N)c(N=O)c(OCC2CC=CCC2)n1 (configuration not stated) |
|  |  | 52% | 40% |  | Nc1nc(N)c(N)c(OCC2CCCCC2)n1 |
|  |  | 28% | 36% |  | CC(=O)Nc1nc(N)nc(OCC2CCCCC2)c1N=O |
|  |  | 6% | 8% |  | COC(=O)Nc1nc(N)nc(OCC2CCCCC2)c1N=O |
| 13% | 13% |  |  |  | CO/N=C/c1c(N)nc(N)nc1OCC1CCCCC1 |
| 22% | 17% |  |  |  | CCCCCCCOc1nc(N)nc(N)c1N=O |

Second part, the molecule before the results:

| Structure (SMILES) | inhibition [1] | inhibition [2] | inhibition [3] | inhibition [4] | IC50 [5] |
| --- | --- | --- | --- | --- | --- |
| Nc1cc(OCC2CCCCC2)nc(N)n1 | 7% | 4% |  |  |  |
| Nc1cc(OCC2CC=CCC2)nc(N)n1 (configuration not stated) | 8% | 16% |  |  |  |
| Nc1nc(N)c(C(=O)c2ccccc2)c(OCC2CCCCC2)n1 | 6% | 21% |  |  |  |
| Nc1nc(NC(=O)OCc2ccccc2)c(N=O)c(OCC2CCCCC2)n1 | 11% | 14% |  |  |  |
| Nc1nc(N)c(C(O)c2ccccc2)c(OCC2CCCCC2)n1 (configuration not stated) |  |  | 12% | 4% |  |
| Nc1nc(N)c(/C=N/OCc2ccccc2)c(OCC2CCCCC2)n1 | 3% | 5% |  |  |  |
| Nc1nc(N)c(N=O)c(OC[C@@H]2NCCC2=O)n1 |  |  |  |  | 65 µM |
| Nc1nc(Nc2ccccc2)c(N=O)c(OCC2CCCCC2)n1 |  |  | 47% | 23% |  |
| COc1ccc(Nc2nc(N)nc(OCC3CCCCC3)c2N=O)cc1 |  |  | 8% | 7% |  |
